Some test systems named below: HL-60; UO-31; LOX IMVI; NCI-H23; SNB-75; RPMI-8226; NCI-H226; HOP-92; CCRF-CEM; OVCAR-3; ACHN; SF-295; K562; RXF 393; MOLT-4; EKVX; SNB-19; HCC 2998.
Common to all, as to test: NCI tumour cell line growth inhibition, 48 h

Each structure is given as a SMILES string.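 Compound exposure: 48 hours, 5 concentrations, 96-well plates. Abbreviation: GI50, concentration required for 50% inhibition of growth.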 Calls of active or inactive are those of the source. Rule as the data show it: active = GI50 up to about 1.1 µM and inactive = higher.

Take `Cc1cc(O)nc(NNC(C#N)c2ccccc2O)n1` (stereo unspecified): the GI50 in the assay on HL-60 was 3.72 µM (inactive); with UO-31 it was 18.5 µM (inactive); in the assay on LOX IMVI, 17.6 µM (inactive); in the assay with NCI-H23, 22.7 µM (inactive); in the assay on SNB-75, 31.5 µM (inactive); in the assay on RPMI-8226, 22 µM (inactive). The GI50 was 31.1 µM (inactive) with NCI-H226; 75.5 µM (inactive) with HOP-92; 13.6 µM (inactive) in the assay with CCRF-CEM; 10.8 µM (inactive) in the assay on OVCAR-3; 16.6 µM (inactive) in the assay with ACHN; 38.4 µM (inactive) in the assay with SF-295. Moreover, the GI50 in the assay on K562 is 41.7 µM (inactive); in the assay with RXF 393 it was > 100 µM (inactive); in the assay with MOLT-4, 24.6 µM (inactive).
Consider `COC(=O)c1ccccc1/N=C/c1ccc(N(CCC#N)S(=O)(=O)c2ccccc2)cc1`, for which the GI50 in the assay with HL-60, in the assay on UO-31, with LOX IMVI, in the assay on NCI-H23, with SNB-75 and in the assay with RPMI-8226 was > 100 µM (inactive) each time. In addition, the GI50 in the assay with NCI-H226, in the assay with EKVX, with HOP-92, in the assay with CCRF-CEM, in the assay with SNB-19 and with OVCAR-3 was > 100 µM (inactive) throughout. Further, the GI50 in the assay on ACHN, with SF-295, in the assay with K562, in the assay on RXF 393 and with MOLT-4 was > 100 µM (inactive) in each case.
As to `O=C1NC(c2ccccc2)(c2ccccc2)C(=O)N1CCCCCCN1C(=O)NC(c2ccccc2)(c2ccccc2)C1=O`, the GI50 with HL-60 was > 100 µM (inactive); in the assay on UO-31, > 100 µM (inactive); in the assay with LOX IMVI it was 62.5 µM (inactive); with NCI-H23 it was 18.2 µM (inactive); in the assay on SNB-75, 4.79 µM (inactive); in the assay with RPMI-8226, > 100 µM (inactive). For the same compound, the GI50 in the assay with NCI-H226 is > 100 µM (inactive); in the assay on EKVX it was 39.4 µM (inactive); with HOP-92 it was 4.83 µM (inactive); with CCRF-CEM it was > 100 µM (inactive); in the assay on SNB-19, 12.2 µM (inactive); in the assay with OVCAR-3 it was 83.2 µM (inactive). Besides, the GI50 with ACHN is 33.3 µM (inactive); in the assay with SF-295, 13.2 µM (inactive); in the assay with K562 it was 52.8 µM (inactive); in the assay with HCC 2998, > 100 µM (inactive); in the assay with MOLT-4 it was > 100 µM (inactive).
In the case of `COC(=O)/C=C1/CCC2[C@@H](C(=O)CC3[C@]2(C)CCC[C@@]3(C)C(=O)OC)C1C` (stereo partly specified), the GI50 with HL-60 was 2.61 µM (inactive); in the assay on UO-31, 15.1 µM (inactive); in the assay with NCI-H23, 11.2 µM (inactive); in the assay with SNB-75, 8.99 µM (inactive); with RPMI-8226, 2.98 µM (inactive); in the assay with NCI-H226, 21.2 µM (inactive). Besides, the GI50 in the assay on EKVX is 24 µM (inactive); in the assay on HOP-92 it was 5.13 µM (inactive); in the assay on CCRF-CEM it was 3.56 µM (inactive); in the assay on SNB-19, 17.4 µM (inactive); with OVCAR-3, 7.67 µM (inactive); in the assay with ACHN, 10.1 µM (inactive). Moreover, the GI50 with SF-295 was 17.7 µM (inactive); in the assay with K562, 3.18 µM (inactive); with HCC 2998, 20.1 µM (inactive); with MOLT-4, 4.04 µM (inactive).
Regarding `O=c1cc(-c2ccccc2)oc2cc(O)cc(O)c12` [CHRYSIN], the GI50 in the assay on HL-60 was 16.8 µM (inactive); in the assay on UO-31, 20.4 µM (inactive); in the assay on LOX IMVI it was 14.7 µM (inactive); in the assay on NCI-H23, 20.9 µM (inactive); with SNB-75, 10.3 µM (inactive); with RPMI-8226, 16 µM (inactive). The GI50 in the assay with NCI-H226 was 20.6 µM (inactive); in the assay on EKVX it was 23.1 µM (inactive); in the assay with HOP-92 it was 16.4 µM (inactive); with CCRF-CEM it was 19.4 µM (inactive); in the assay with SNB-19, 18.5 µM (inactive); in the assay on OVCAR-3, 28.8 µM (inactive). Moreover, the GI50 is 15.2 µM (inactive) in the assay on ACHN; 14.9 µM (inactive) in the assay with SF-295; 22.8 µM (inactive) with K562; 19.8 µM (inactive) in the assay with HCC 2998; 18.3 µM (inactive) in the assay with MOLT-4.
Regarding `CCN1CCC(O)(c2ccc(Cl)cc2)C(C(=O)c2ccc(Cl)cc2)C1` (stereo unspecified), the GI50 in the assay on HL-60 was > 100 µM (inactive); in the assay on UO-31, 35.2 µM (inactive); with LOX IMVI, > 100 µM (inactive); with NCI-H23 it was > 100 µM (inactive); in the assay with SNB-75, 42 µM (inactive); with RPMI-8226 it was 24.4 µM (inactive). The GI50 was > 100 µM (inactive) in the assay with EKVX; > 100 µM (inactive) in the assay on HOP-92; 49.5 µM (inactive) in the assay with CCRF-CEM; > 100 µM (inactive) in the assay on SNB-19; > 100 µM (inactive) in the assay with OVCAR-3; > 100 µM (inactive) in the assay with ACHN. Also, the GI50 with SF-295, with K562, in the assay with HCC 2998, in the assay with RXF 393 and with MOLT-4 was > 100 µM (inactive) each time.
On to `O=[N+]([O-])/C=C/c1ccc(Cl)cc1Cl`, for which the GI50 in the assay on HL-60 is 5.26 µM (inactive); in the assay with UO-31, 16.2 µM (inactive); in the assay on NCI-H23, 19.2 µM (inactive); in the assay with SNB-75, 20.4 µM (inactive); with RPMI-8226, 2.44 µM (inactive); with NCI-H226, 17.6 µM (inactive). Moreover, the GI50 was 15.3 µM (inactive) with HOP-92; 3.62 µM (inactive) in the assay with CCRF-CEM; 17.8 µM (inactive) with SNB-19; 19.9 µM (inactive) in the assay on OVCAR-3; 16.8 µM (inactive) with ACHN; 17 µM (inactive) in the assay on SF-295. The figures for the GI50 in the assay with K562, in the assay on HCC 2998 and in the assay with MOLT-4 were 3.33 µM (inactive), 15.5 µM (inactive) and 15.8 µM (inactive), respectively.
Regarding `COC[C@@H](/N=C/N1CCc2cc(OC)c(OC)cc2C1)C(C)(C)C`, the GI50 in the assay with HL-60, with UO-31, in the assay with NCI-H23, with SNB-75, in the assay on RPMI-8226 and in the assay with NCI-H226 was > 100 µM (inactive) throughout. The GI50 in the assay on EKVX, with HOP-92, in the assay on CCRF-CEM, in the assay on SNB-19, in the assay on OVCAR-3 and with ACHN was > 100 µM (inactive) throughout. Moreover, the GI50 in the assay with SF-295, in the assay with K562, with RXF 393 and in the assay with MOLT-4 was > 100 µM (inactive) throughout.
In the case of `COc1ccc2nc3ccccc3c(NCCN(CCCl)CCCl)c2c1`, the GI50 is 0.206 µM (active) in the assay on HL-60; 1.57 µM (inactive) with UO-31; 0.156 µM (active) with NCI-H23; 1.25 µM (inactive) in the assay on SNB-75; 1 µM (active) in the assay with NCI-H226; 2.35 µM (inactive) in the assay on EKVX. Also, the GI50 in the assay on HOP-92 is 0.476 µM (active); in the assay with CCRF-CEM it was 0.144 µM (active); in the assay on SNB-19, 0.656 µM (active); in the assay with OVCAR-3, 0.269 µM (active); in the assay with ACHN it was 0.336 µM (active); in the assay with SF-295, 0.614 µM (active). Also, the GI50 was 0.407 µM (active) in the assay with K562, 1.28 µM (inactive) with HCC 2998, 1.66 µM (inactive) with RXF 393 and 0.0592 µM (active) in the assay with MOLT-4.
On to `O=C(N/C(=C\c1cccc([N+](=O)[O-])c1)c1nc2cc([N+](=O)[O-])ccc2[nH]1)c1ccccc1`, for which the GI50 is 10.9 µM (inactive) in the assay with UO-31; 27.3 µM (inactive) in the assay on NCI-H23; 51.9 µM (inactive) with EKVX; 21.4 µM (inactive) with HOP-92; 19.8 µM (inactive) with CCRF-CEM; 45.4 µM (inactive) with SNB-19. Further, the GI50 with OVCAR-3 was 40.6 µM (inactive); in the assay on ACHN it was 28.4 µM (inactive); in the assay on SF-295, 40.4 µM (inactive); with K562, 25.1 µM (inactive); in the assay with HCC 2998, 33.5 µM (inactive); in the assay with RXF 393, 12.8 µM (inactive). In the assay with MOLT-4, the GI50 is 12.2 µM (inactive).
On to `Cc1ccccc1C(C#N)/C(=N/NC(=O)C(=O)NN)C(=O)Nc1cccc(C(F)(F)F)c1` (stereo unspecified), for which the GI50 is > 100 µM (inactive) with HL-60; > 100 µM (inactive) in the assay with UO-31; > 100 µM (inactive) with NCI-H23; 49.8 µM (inactive) in the assay with SNB-75; > 100 µM (inactive) with RPMI-8226; > 100 µM (inactive) in the assay with NCI-H226. Further, the GI50 in the assay with EKVX, in the assay with HOP-92, in the assay on CCRF-CEM, in the assay on SNB-19, with OVCAR-3 and in the assay on ACHN was > 100 µM (inactive) throughout. Besides, the GI50 with SF-295, in the assay on K562, in the assay with HCC 2998 and with MOLT-4 was > 100 µM (inactive) each time.
With `CNS(=O)(=O)NNS(=O)(=O)c1ccc2ccccc2c1`, the GI50 with HL-60, in the assay on UO-31, with LOX IMVI, with NCI-H23, with SNB-75 and in the assay on RPMI-8226 was > 100 µM (inactive) in each case. Moreover, the GI50 with NCI-H226, with EKVX, with CCRF-CEM, with SNB-19, in the assay on OVCAR-3 and in the assay with ACHN was > 100 µM (inactive) each time. The GI50 in the assay with SF-295, with K562, in the assay on HCC 2998 and in the assay on MOLT-4 was > 100 µM (inactive) throughout.

These data come from ChEMBL document CHEMBL1201862, “PubChem BioAssay data set” (2004).
